From PubChem BioAssay AID1963984 (Molecular Pharmacology Branch, DTP, NCI, 2024)

System: 233499-124-R-J3-PDC spheroids with HUVEC/MSC, viability
Assay: Anticancer human tumor 233499-124-R-J3-PDC patient-derived colon adenocarcinoma cell line growth inhibition [PI3K]
Details: for IC50: curve of first compound; for viability, T/C: stronger effect = lower value
How it was run: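 Tumor cells were combined with HUVEC and MSCs into spheroids, then dosed with PI3K-inhibitor combinations over half-log ranges capped near clinical Cmax or 10 microM.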

[1] = second compound 0.0316 µM, first compound 0.0316 µM
[2] = second compound 0.0316 µM, first compound 0.1 µM
[3] = second compound 0.1 µM, first compound 0.0316 µM
[4] = second compound 0.1 µM, first compound 0.1 µM
[5] = second compound 0.316 µM, first compound 0.0316 µM
[6] = second compound 0.316 µM, first compound 0.1 µM
[7] = second compound 1 µM, first compound 0.0316 µM
[8] = second compound 1 µM, first compound 0.1 µM
[9] = second compound 3.16 µM, first compound 0.0316 µM
[10] = second compound 3.16 µM, first compound 0.1 µM
[11] = second compound 10 µM, first compound 0.0316 µM
[12] = second compound 10 µM, first compound 0.1 µM
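Further: spheroids exposed to agents for seven days before readout.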
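Wherever viability, T/C is given: percent viability relative to DMSO vehicle control taken as 100%.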

CC(=O)c1c(C)c2cnc(Nc3ccc(N4CCNCC4)cn3)nc2n(C2CCCC2)c1=O + CC(Nc1ncnc2nc[nH]c12)c1cc2cccc(Cl)c2c(=O)n1-c1ccccc1
IC50 (second compound 0.0316 µM): > 100 nM | IC50 (second compound 0.1 µM): > 100 nM | IC50 (second compound 0.316 µM): > 100 nM | IC50 (second compound 1 µM): > 100 nM | IC50 (second compound 3.16 µM): > 100 nM | IC50 (second compound 10 µM): > 100 nM | viability, T/C (second compound 0.0316 µM, first compound 0.000316 µM): 99% | viability, T/C (second compound 0.0316 µM, first compound 0.001 µM): 83.9% | viability, T/C (second compound 0.0316 µM, first compound 0.00316 µM): 93.1% | viability, T/C (second compound 0.0316 µM, first compound 0.01 µM): 99.5% | viability, T/C [1]: 101% | viability, T/C [2]: 89% | viability, T/C (second compound 0.1 µM, first compound 0.000316 µM): 92.7% | viability, T/C (second compound 0.1 µM, first compound 0.001 µM): 99.2% | viability, T/C (second compound 0.1 µM, first compound 0.00316 µM): 93.9% | viability, T/C (second compound 0.1 µM, first compound 0.01 µM): 115% | viability, T/C [3]: 101% | viability, T/C [4]: 82.6% | viability, T/C (second compound 0.316 µM, first compound 0.000316 µM): 102% | viability, T/C (second compound 0.316 µM, first compound 0.001 µM): 91.2% | viability, T/C (second compound 0.316 µM, first compound 0.00316 µM): 93% | viability, T/C (second compound 0.316 µM, first compound 0.01 µM): 92.2% | viability, T/C [5]: 86% | viability, T/C [6]: 77.2% | viability, T/C (second compound 1 µM, first compound 0.000316 µM): 100% | viability, T/C (second compound 1 µM, first compound 0.001 µM): 86.9% | viability, T/C (second compound 1 µM, first compound 0.00316 µM): 78.1% | viability, T/C (second compound 1 µM, first compound 0.01 µM): 71.5% | viability, T/C [7]: 76.1% | viability, T/C [8]: 81.8% | viability, T/C (second compound 3.16 µM, first compound 0.000316 µM): 106% | viability, T/C (second compound 3.16 µM, first compound 0.001 µM): 105% | viability, T/C (second compound 3.16 µM, first compound 0.00316 µM): 94.2% | viability, T/C (second compound 3.16 µM, first compound 0.01 µM): 83.8% | viability, T/C [9]: 77.2% | viability, T/C [10]: 53.4% | viability, T/C (second compound 10 µM, first compound 0.000316 µM): 86.3% | viability, T/C (second compound 10 µM, first compound 0.001 µM): 103% | viability, T/C (second compound 10 µM, first compound 0.00316 µM): 92.9% | viability, T/C (second compound 10 µM, first compound 0.01 µM): 86.2% | viability, T/C [11]: 82.4% | viability, T/C [12]: 68.7%

CNC(=O)c1ccc(N2C(=S)N(c3ccc(C#N)c(C(F)(F)F)c3)C(=O)C2(C)C)cc1F + CC(Nc1ncnc2nc[nH]c12)c1cc2cccc(Cl)c2c(=O)n1-c1ccccc1
IC50 (second compound 0.0316 µM): > 10000 nM | IC50 (second compound 0.1 µM): > 10000 nM | IC50 (second compound 0.316 µM): > 10000 nM | IC50 (second compound 1 µM): > 10000 nM | IC50 (second compound 3.16 µM): > 10000 nM | IC50 (second compound 10 µM): > 10000 nM | viability, T/C [1]: 106% | viability, T/C [2]: 92.8% | viability, T/C (second compound 0.0316 µM, first compound 0.316 µM): 88.1% | viability, T/C (second compound 0.0316 µM, first compound 1 µM): 94.5% | viability, T/C (second compound 0.0316 µM, first compound 3.16 µM): 79.7% | viability, T/C (second compound 0.0316 µM, first compound 10 µM): 63.6% | viability, T/C [3]: 101% | viability, T/C [4]: 81% | viability, T/C (second compound 0.1 µM, first compound 0.316 µM): 96.5% | viability, T/C (second compound 0.1 µM, first compound 1 µM): 76.3% | viability, T/C (second compound 0.1 µM, first compound 3.16 µM): 80.8% | viability, T/C (second compound 0.1 µM, first compound 10 µM): 83.9% | viability, T/C [5]: 102% | viability, T/C [6]: 90.1% | viability, T/C (second compound 0.316 µM, first compound 0.316 µM): 92.6% | viability, T/C (second compound 0.316 µM, first compound 1 µM): 80.5% | viability, T/C (second compound 0.316 µM, first compound 3.16 µM): 71.7% | viability, T/C (second compound 0.316 µM, first compound 10 µM): 52.6% | viability, T/C [7]: 81.5% | viability, T/C [8]: 95.7% | viability, T/C (second compound 1 µM, first compound 0.316 µM): 96.5% | viability, T/C (second compound 1 µM, first compound 1 µM): 77.4% | viability, T/C (second compound 1 µM, first compound 3.16 µM): 78.2% | viability, T/C (second compound 1 µM, first compound 10 µM): 68.3% | viability, T/C [9]: 107% | viability, T/C [10]: 76.6% | viability, T/C (second compound 3.16 µM, first compound 0.316 µM): 104% | viability, T/C (second compound 3.16 µM, first compound 1 µM): 87.6% | viability, T/C (second compound 3.16 µM, first compound 3.16 µM): 80.8% | viability, T/C (second compound 3.16 µM, first compound 10 µM): 68.4% | viability, T/C [11]: 85.7% | viability, T/C [12]: 97.3% | viability, T/C (second compound 10 µM, first compound 0.316 µM): 93.3% | viability, T/C (second compound 10 µM, first compound 1 µM): 95.6% | viability, T/C (second compound 10 µM, first compound 3.16 µM): 60.9% | viability, T/C (second compound 10 µM, first compound 10 µM): 58.3%

Cn1cnc2c(F)c(Nc3ccc(Br)cc3Cl)c(C(=O)NOCCO)cc21 + CC(Nc1ncnc2nc[nH]c12)c1cc2cccc(Cl)c2c(=O)n1-c1ccccc1
IC50 (second compound 0.0316 µM): 600 nM | IC50 (second compound 0.1 µM): 603 nM | IC50 (second compound 0.316 µM): 511 nM | IC50 (second compound 1 µM): 281 nM | IC50 (second compound 3.16 µM): 275 nM | IC50 (second compound 10 µM): 455 nM | viability, T/C (second compound 0.0316 µM, first compound 0.00949 µM): 68.9% | viability, T/C (second compound 0.0316 µM, first compound 0.03 µM): 69.2% | viability, T/C (second compound 0.0316 µM, first compound 0.0949 µM): 66% | viability, T/C (second compound 0.0316 µM, first compound 0.3 µM): 70.9% | viability, T/C (second compound 0.0316 µM, first compound 0.949 µM): 37.6% | viability, T/C (second compound 0.0316 µM, first compound 3 µM): 28.6% | viability, T/C (second compound 0.1 µM, first compound 0.00949 µM): 83.8% | viability, T/C (second compound 0.1 µM, first compound 0.03 µM): 73.6% | viability, T/C (second compound 0.1 µM, first compound 0.0949 µM): 64.9% | viability, T/C (second compound 0.1 µM, first compound 0.3 µM): 67.6% | viability, T/C (second compound 0.1 µM, first compound 0.949 µM): 40.3% | viability, T/C (second compound 0.1 µM, first compound 3 µM): 19.5% | viability, T/C (second compound 0.316 µM, first compound 0.00949 µM): 90% | viability, T/C (second compound 0.316 µM, first compound 0.03 µM): 76.5% | viability, T/C (second compound 0.316 µM, first compound 0.0949 µM): 61.1% | viability, T/C (second compound 0.316 µM, first compound 0.3 µM): 64% | viability, T/C (second compound 0.316 µM, first compound 0.949 µM): 41% | viability, T/C (second compound 0.316 µM, first compound 3 µM): 31% | viability, T/C (second compound 1 µM, first compound 0.00949 µM): 96.6% | viability, T/C (second compound 1 µM, first compound 0.03 µM): 73.4% | viability, T/C (second compound 1 µM, first compound 0.0949 µM): 53% | viability, T/C (second compound 1 µM, first compound 0.3 µM): 51.5% | viability, T/C (second compound 1 µM, first compound 0.949 µM): 51.7% | viability, T/C (second compound 1 µM, first compound 3 µM): 22.4% | viability, T/C (second compound 3.16 µM, first compound 0.00949 µM): 76.8% | viability, T/C (second compound 3.16 µM, first compound 0.03 µM): 76.2% | viability, T/C (second compound 3.16 µM, first compound 0.0949 µM): 64.7% | viability, T/C (second compound 3.16 µM, first compound 0.3 µM): 48.9% | viability, T/C (second compound 3.16 µM, first compound 0.949 µM): 40% | viability, T/C (second compound 3.16 µM, first compound 3 µM): 37.1% | viability, T/C (second compound 10 µM, first compound 0.00949 µM): 74.6% | viability, T/C (second compound 10 µM, first compound 0.03 µM): 52.1% | viability, T/C (second compound 10 µM, first compound 0.0949 µM): 72.8% | viability, T/C (second compound 10 µM, first compound 0.3 µM): 50% | viability, T/C (second compound 10 µM, first compound 0.949 µM): 43.4% | viability, T/C (second compound 10 µM, first compound 3 µM): 25.3%
